Test results published in patent US20230095907A1, “STIMULATION OF NEURONAL PLASTICITY” (Institute of Science and Technology Austria, priority 2019, published 2023).

Columns and labels:
perineuronal net (PNN) [1] = assay: PNN-covered cells (WFA staining) in primary somatosensory cortex after repeated KXA-anaesthesia; type: in vivo, C57BL/6J mice; conditions: female compared with male
Experimental: (§1) C57BL/6J mice were intraperitoneal (i.p.) injected in the morning. Deep anaesthesia was confirmed based on the following parameters: • 1. Absence of the toe pinch reflex around 10 minutes after induction. • 2. Decrease in the respiratory frequency. • 3. No responses to external stimuli. • 4. Flaccid paralysis. • 5. Absence of whiskers movement.
(§2) Solution was always freshly prepared to avoid pH fluctuations.
(§3) For histological analysis, animals were shortly anesthetized with isoflurane (Zoetis) and secured to the perfusion plate. The chest was open to expose the hearth. […] The animals were initially perfused with 20 mL of phosphate-buffered saline (PBS) with heparin (100 mg/L, Sigma H0878), followed by 20 mL of 4% (w/v) paraformaldehyde (PFA, Sigma P6148) in PBS using a peristaltic pump (Behr PLP 380, speed: 25 rpm). The animals were decapitated, the retina and brain explanted, and post-fixed in 4% (w/v) PFA/PBS for 30 minutes and overnight (16h), respectively. […]
(§4) Perineuronal net density per mm^3. In each image, neurons surrounded by perineuronal nets were counted using the spot detection function of Imaris (Oxford Instruments). […]
(§5) Perineuronal net density per mm^3: Each data point represents the count of neurons surrounded by PNN in one image per animal (biological replicates). For all following analyses, cell densities were calculated as a percentage with the respective control set to 100%. […]

perineuronal net (PNN) [2] = assay: PNN-covered cells (WFA staining) in primary visual cortex (V1); type: in vivo, C57BL/6J mice; conditions: female compared with male
Experimental: as §1, §2, §3, §4, §5

[3] = test system: parvalbumin-positive neurons, microglia, astrocytes; assay: Cell density, apoptosis and astrogliosis in S1 (parvalbumin, Iba1, Caspase3, GFAP immunostaining)
Experimental: For histological analysis, animals were shortly anesthetized with isoflurane (Zoetis) and secured to the perfusion plate. The chest was open to expose the hearth. […] The animals were initially perfused with 20 mL of phosphate-buffered saline (PBS) with heparin (100 mg/L, Sigma H0878), followed by 20 mL of 4% (w/v) paraformaldehyde (PFA, Sigma P6148) in PBS using a peristaltic pump (Behr PLP 380, speed: 25 rpm). The animals were decapitated, the retina and brain explanted, and post-fixed in 4% (w/v) PFA/PBS for 30 minutes and overnight (16h), respectively. Then, the tissues were washed in PBS and stored at 4° C. with 0.025% (w/v) sodium azide (VWR 786-299). For cryoprotection, the tissue was transferred in 30% (w/v) sucrose (Sigma 84097) in PBS and incubated overnight at 4° C. To increase antibody permeability, the brain slices were frozen over dry-ice and thawed at room temperature for three cycles.
P-values were adjusted with the “p.adjust” function and the method set to “BH”.

[4] = test system: gamma oscillations in the brain; assay: Power spectrum analysis of brain oscillations after repeated ketamine exposure; type: in vivo
[5] = ketamine; cited from earlier work
[6] = target: purinergic receptor P2Y12 (Mus musculus, UniProt Q9CPV9); conditions: 3×, S1
Sequence of purinergic receptor P2Y12 (Q9CPV9 whole entry): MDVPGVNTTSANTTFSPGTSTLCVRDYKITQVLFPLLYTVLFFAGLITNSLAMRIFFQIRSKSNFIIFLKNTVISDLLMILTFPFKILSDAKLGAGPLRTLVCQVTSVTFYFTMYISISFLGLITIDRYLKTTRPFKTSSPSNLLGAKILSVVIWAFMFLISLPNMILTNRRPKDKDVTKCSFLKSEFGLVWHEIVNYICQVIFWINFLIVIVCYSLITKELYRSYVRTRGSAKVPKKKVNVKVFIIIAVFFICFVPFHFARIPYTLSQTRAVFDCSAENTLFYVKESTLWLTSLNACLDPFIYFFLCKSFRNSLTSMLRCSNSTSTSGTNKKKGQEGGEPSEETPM
Experimental: Clopidogrel: Clopidogrel (Tocris 2490) was dissolved in dimethyl sulfoxide (DMSO, Sigma, D8418) and diluted 1:4 in phosphate buffer saline (PBS) before the injection.
Perineuronal net density per mm^3. In each image, neurons surrounded by perineuronal nets were counted using the spot detection function of Imaris (Oxford Instruments). The total cell count was normalised to the entire image volume and data are represented as number of cells surrounded by perineuronal nets per mm^3.
Perineuronal net density per mm^3: Each data point represents the count of neurons surrounded by PNN in one image per animal (biological replicates). For all following analyses, cell densities were calculated as a percentage with the respective control set to 100%. Linear regression was used to predict cell density per mm^3 (as absolute values or as percentages compared to the respective control) by experimental condition in cases where more than two levels were involved. Then, a two-sided T-test was then used to investigate differences between experimental conditions in cases where only two levels were involved. P-values were adjusted with the “p.adjust” function and the method set to “BH”.

Question: With `CNC1(c2ccccc2Cl)CCCCC1=O` (stereo not drawn) [ketamine, 2-(2-chlorophenyl)-2-(methylamino)cyclohexan-1-one] as the molecule, how does the “sex difference in the action (PNN loss) of repeated exposure” value (perineuronal net (PNN) [1]) read?
Answer: The value was “accelerated in females”.

Question: What about the “sex difference in PNN recovery rate” value (perineuronal net (PNN) [2]) of the same molecule?
Answer: Its value is “recovery rate was similar”.

Question: What about the apoptosis ([3]; repeated ketamine exposure) of the same molecule?
Answer: Its apoptosis is “does not induce apoptosis”.

Question: And the parvalbumin-positive neuron density ([3]; repeated ketamine exposure)?
Answer: The parvalbumin-positive neuron density was “does not induce apoptosis or alteration in parvalbumin-positive neuron density”.

Question: And the “astrogliosis (GFAP)” value ([3]; repeated ketamine exposure (6×KXA))?
Answer: Its value is “nor induce astrogliosis”.

Question: And the “60 Hz frequency gamma oscillations in the brain” value [4]?
Answer: The value was “increase in 60 Hz frequency gamma oscillations”.

Question: And the half-life [5]?
Answer: Its half-life is 2 h.

Question: With `COC(=O)[C@H](c1ccccc1Cl)N1CCc2sccc2C1` [clopidogrel] as the molecule, how does the “loss of PNN-covered cells” value ([6]; 50 mg/Kg clopidogrel i.p. 5 minutes before KXA) read?
Answer: Its value is “prevented ketamine-mediated loss of PNN-covered cells”.

Question: What about the “microglia interaction with the PNN structure” value ([6]; clopidogrel i.p. 5 minutes before KXA) of the same molecule?
Answer: The value was “microglia showed less interaction with the PNN structure”.
